Measured values taken from PMC9661476 (Journal of Medicinal Chemistry, 2022).
Values after ≈ are worked out from the molar mass of the structure shown. Like-named read-outs stand apart in the source and are kept apart here.

Columns and labels:
[1] = Aqueous solubility measurement; format: physicochemical; settings: for solubility: distilled or deionized water; for solubility, single assay: water
Experimental: Then, distilled or deionized water was added under gentle agitation until total dissolution. All the experiments were performed in triplicate.

plasmatic TTR = settings: Phase IIa, FAP patients; cited from earlier work
[2] = assays 1-3 of triplicate, read-out: solubility, single assay
[3] = average of triplicate, read-out: solubility, average

SMILES | melting point | solubility [1, 2] | solubility [1, 3] | solubility, single assay ([1]; assays 1-3 of triplicate) | Adverse events (plasmatic TTR)
O=C(c1ccc(C(F)(F)F)cc1)c1cc(O)c(O)c([N+](=O)[O-])c1 [Compound M-14, (3,4-Dihydroxy-5-nitrophenyl)-[4-(trifluoromethyl)phenyl]methanone] | 68 to 71 °C |  |  |  | 
O=C(c1cc(F)cc(F)c1)c1cc(O)c(O)c([N+](=O)[O-])c1 [Compound M-21, (3,5-Difluorophenyl)-(3,4-dihydroxy-5-nitrophenyl)methanone] | 135 to 137 °C |  |  |  | 
Cc1ccc(C(=O)c2cc(O)c(O)c([N+](=O)[O-])c2)cc1 [tolcapone, 3,4-dihydroxy-4′-methyl-5-nitrobenzophenone, reference compound] |  | 56 µg/mL (≈ 205 µM) | 56 µg/mL (≈ 205 µM) | 55 µg/mL (≈ 201 µM) | no adverse events were registered
O=C(c1cc(Cl)cc(Cl)c1)c1cc(O)c(O)c([N+](=O)[O-])c1 [Compound M-20, (3,5-Dichlorophenyl)-(3,4-dihydroxy-5-nitrophenyl)methanone] | 182 to 184 °C |  |  |  | 
O=C(c1cc(O)cc(F)c1)c1cc(O)c(O)c([N+](=O)[O-])c1 [Compound M-23, (3,4-Dihydroxy-5-nitrophenyl)-(3-fluoro-5-hydroxyphenyl)methanone] |  | 44 µg/mL (≈ 150 µM) | 45 µg/mL (≈ 153 µM) | 45 µg/mL (≈ 153 µM) | 
